For data set [1] the following is noted: cited from earlier work.
Data set [2] in a line: Tolerability in MaTu-bearing nude mice (toxic deaths, body weight change, hemotoxicity). Format: in vivo, Ncr:nu/nu female mice. The following applies: i.p., 12.5 mg/kg/inj., treatment d 10-13. From the text:
|Animals: Ncr:nu/nu female

The subject of the next data set is P388 cells. Particulars: in vitro, free vs liposome-encapsulated vs nanoparticular taxol; cited from earlier work.
The test system of the next data set is P388. The following applies: 12.5 mg/kg/4 days; free vs liposomal; cited from earlier work.
Another data set relates to human glioblastoma. Particulars: 12.5 mg/kg/4 days; cited from earlier work.
The test system of the next data set is microtubuli. The following applies: cited from earlier work.
A further data set concerns B16 melanoma. Particulars: implanted B16 melanoma; cited from earlier work.
The next data set deals with P388 leukemia. Particulars: implanted P388 leukemia; cited from earlier work.
A further data set relates to human breast tumors. The following applies: cited from earlier work.
For data set [3] the following is noted: dilution of Cremophor/alcohol solutions with physiological salt solution; cited from earlier work.

polyethoxylated castor oil [Cremophor]: in [1], the “toxicities observed in man” value is reported as “increased formation of chylomicrons”.
`CC(=O)O[C@H]1C(=O)[C@@]2(C)[C@H]([C@H](OC(=O)c3ccccc3)[C@]3(O)C[C@H](OC(=O)[C@H](O)[C@@H](NC(=O)c4ccccc4)c4ccccc4)C(C)=C1C3(C)C)[C@]1(OC(C)=O)CO[C@@H]1C[C@@H]2O` [Taxol]: the “BWC (%) d10-13” value in data set [2] is -1%. Besides, the “Toxic deaths (d): day of death” value in [2] (8 nude mice) was found to be 16 days. In addition, the “Toxic deaths (d): number” value in data set [2] (8 nude mice) was 1. The “growth inhibition of P388 cells” value with P388 cells is “inhibited equally by all three forms of the drug”. In addition, the “therapeutic effectiveness on P388 in vivo” value with P388 is “comparable in their therapeutic effectiveness”. For the same compound, the “decrease in tumor growth” value in the data set on human glioblastoma is listed as “significant decrease in tumor growth”. Moreover, the depolymerization of microtubuli result in the data set with microtubuli was “stabilizes the microtubuli by inhibiting their depolymerization”. In addition, in the data set with microtubuli (during the whole of the cell cycle), the “arrangement and bundling of microtubuli” value was “abnormal arrangement and bundling of microtubuli”. In addition, the polymerization of microtubuli entry in the data set with microtubuli (from tubuli dimers) is listed as “promotes the polymerization of microtubuli”. Further, the antineoplastic activity result in the data set with B16 melanoma, in the data set on P388 leukemia and with human breast tumors was “clear antineoplastic activity” each time. The “stability in physiological salt solution” value in data set [3] was “not more than 24 hours”.

These data come from US6090955A (priority 1994, dated 2000).
